# From EP1263420B1 (priority 2000, dated 2001)
# “Also recorded” adds a separate entry of the source.
# Tests used:
# TGase II [1] = assay: TGase II activity in cultured MCF-7 cells; format: cell-based, human
# Experimental: MCF-7 cells were seeded at a density of 1.5 x 10^5 cells/ml medium (500ml DMEM + 56.2ml FBS + 5.6m1 AB/AM) in 6cm diameter dishes for 24 hours and treated with either DMSO, RA, or 13-cis RA at 10^-6 M and grown to confluence (about 72 hours). Cells were harvested and Transglutaminase II activity was measured as described below. Nebulizer solution, inhalation procedures, details of animal housing are described below.
# Cultured cells were placed in 100 µl scraping buffer [A: 2800µl (400µl 0.5M Na-Phosphate, 500µl 0.01M EDTA, 100µl 1M DTT , 9ml PBS total 10ml) + B:700µl (10µl 20mg/ml PMSF 790µl PBS total 800µl)] for each dish. Cells were broken by a sonicator and kept in ice until used. TGase II assay was conducted as described below and previously {8217}.
# Enzyme assay mixtures were prepared by adding 80µl of SUBSTRATE mixture (322.8µl H2O, 120µl 0.5M NaBorate, 60µl 0.01M EDTA, 60µl 0.1M CaCl2, 6µl 1M DTT, 240µl dimethyl casein, 30µl Triton X-100, 1.2µl [^3H]-Putrescine, 120µl Putrescine) to 20µl sample, 20µl scraping buffer for blank control , 20 µl (18µl scraping buffer + 2µl TGase II) for positive control. Samples were mixed in 15ml tubes, the tubes were shaken before putting them into a 28°C water bath for 30 minutes. Reactions were slowed down in an ice bath. 80µl of the incubation mixture was adsorbed onto paper disks. These were immediately dropped into cold 10% TCA (0.1% Putrescine) and washed with agitation for 7 minutes, followed by 2 additional washes with 5% TCA (0.05% putrescine) for 5~7 minutes, and once more with cold (-20°C) 95% ethanol for 5 minutes. Paper disks were dried and placed into 5ml Aquasol, and counted in a Liquid Scintillation Counter. Protein concentration determination was conducted by the Bradford method.
# lung tissue RARs = assay: Western blot of SENCAR mouse lung tissue after dietary RA; format: in vivo
# Experimental: (§1) The experimental groups were divided in two groups of five mice (Table 5) each including a low and high dose group that were fed either a physiological RA diet of 3µg/g diet) or a pharmacological RA diet (30µg/g diet) for 75 weeks, respectively.
# (§2) SENCAR mice (30) were divided into six experimental groups. The experimental groups were as follows (Table 7): groups 1, 3 and 5 (5 mice each) were fed a physiological RA diet (3µg/g diet) for 1, 14 and 28 days; groups 2, 4 and 6 (each of 5 mice) were fed a pharmacological RA diet (30µg/g diet) for 1, 14 and 28 days.
# (§3) Polyclonal rabbit anti-mouse antibodies against RAR, and (SANTA CRUZ Biotechnology Inc., San Francisco, CA) were used. BM Chemiluminescense Western Blotting Kit (Mouse/Rabbit) was used (Boehringer Mannheim Corporation, Indianapolis) for the Westerns.
# Tissues were collected, frozen in dry ice and kept at -70°C until used. 500mg aliquots were diced in small pieces and homogenized in 300µl of cold PBS, using the hand held homogenizer for 2~3 minutes. Sample and washes were centrifuged at 5000xg for 20 minutes. The pellet was suspended in 400 µl of ice-cold Buffer A [2µl 0.5M EDTA, 10µl 100mM EGTA, 50µl 100mM PMSF, 10µl 1M DTT, 10ml (10mM HEPES pH 7.9 + 10mM KCl)], and left at ice temperature for 15 minutes. 25 µl of 10% solution of NP-40 was added and samples were mixed in a vortex vigorously for 10 seconds. […]
# RARγ = assay: Western blot of SENCAR mouse liver after dietary RA; format: in vivo; settings: for RARγ densitometric analysis: male SENCAR mouse liver
# Experimental: as §1, §2, §3
# (§4) Tissues were collected, frozen in dry ice and kept at -70°C until used. 500mg aliquots were diced in small pieces and homogenized in 300µl of cold PBS, using the hand held homogenizer for 2~3 minutes. Sample and washes were centrifuged at 5000xg for 20 minutes. The pellet was suspended in 400 µl of ice-cold Buffer A [2µl 0.5M EDTA, 10µl 100mM EGTA, 50µl 100mM PMSF, 10µl 1M DTT, 10ml (10mM HEPES pH 7.9 + 10mM KCl)], and left at ice temperature for 15 minutes. 25 µl of 10% solution of NP-40 was added and samples were mixed in a vortex vigorously for 10 seconds. Samples were centrifuged at 14,000xg for 1 minute at 4°C and the pellet treated once more in this fashion (resuspended etc.). The supernatant was removed and 100µl of ice-cold Buffer C [4µl 0.5M EDTA, 20µl 100mM EGTA, 20µl 100mM PMSF, 2µl 1 M DTT, 2ml (20mM HEPES pH 7.9 + 0.4M NaCl)] was added. Pellets were resuspended by tapping gently on the bottom of the Eppendorf tubes. Samples were rocked vigorously in a bucket of ice on an orbital shaker for 30 minutes. Samples were centrifuged at 14,000 xg for 5 minutes at 4°C. Protein determination of supernatant was conducted by the Bradford method.
# (§5) Samples were prepared by adding one part of the Sample Buffer to one part of the sample and mixing well. Samples were heated at 95°C for 5 minutes to induce denaturation. 5µl of Rainbow Standard and 5µl ofBiotinylated Molecular Marker were added to parallel wells. 20µg protein per sample was loaded in each lane. Electrophoresis was performed with voltage set at 125V for about 1 ~ 1.5 hours. Gel transfer was executed at 25V for 2 hours. The membrane was stained in Ponceau S. for 5 minutes and destained with one wash of 5% acetic acid. The membrane was then washed in TBS solution until the staining disappeared. Membranes were incubated in 1ml blocking solution and 9ml TBS for 60 minutes. Membranes were incubated in 1ml of blocking solution and 19ml TBS along with 20µl primary antibody solution overnight (dilution of 1 : 1000). Membranes were washed in PBS-Tween 20, 3 times for 10 minutes each. They were finally incubated in 1ml blocking solution and 19ml TBS along with 20µl Antibiotin HRP - Linked Antibody and 2µl of secondary (rabbit anti-mouse antibody) (1 : 10,000 dilution) for 30 minutes. The membranes were washed in PBS - Tween 20, 4 times for 10 minutes each. The film was exposed for development and detection.
# RARβ = assay: as above; format: in vivo; settings: for RARβ densitometric analysis: male SENCAR mouse liver
# Experimental: as §1, §2, §3, §4, §5
# RARα = assay: as above; format: in vivo; settings: for RARα densitometric analysis: male SENCAR mouse liver
# Experimental: as §1, §2, §3, §4, §5
# TGase II [2] = assay: TGase II assay of SENCAR mouse liver tissue after dietary RA; format: in vivo; settings: 75 Weeks
# Experimental: The supernatant was removed and kept in ice until used.
# Reactions were slowed down in an ice bath. […] Protein concentration determination was conducted by the Bradford method.
# [3] = 30µg/g diet versus 3µg/g diet, 75 weeks
# [4] = pharmacological dietary RA over physiological RA (3µg/g diet), day 1
compound,measurement,setting,value
"CC1=C(/C=C/C(C)=C/C=C/C(C)=C/C(=O)O)C(C)(C)CCC1 [RA, all-trans-retinoic acid]",fold induction at 1 µM,"TGase II [1]; Homo sapiens, MCF7, 72 h, read-out: stimulating TGase II activity",7.4
same,TGase II Activity,"TGase II [1]; MCF-7 cells, 10^-6 M, 72 hours, DMSO control 0.183",1.359 +/- 0.098 picomoles/µg protein/30 minutes
same,induction of lung tissue RARs,"lung tissue RARs; long term feeding, 30µg/g diet",failed to induce RARs
same,effect on lung tissue RARs,"lung tissue RARs; time course 1, 14 and 28 days, 30µg/g versus 3µg/g diet, not shown",no effect; also recorded: without any measurable effect on lung tissue RARs
same,upregulated liver RAR (γ),RARγ; [3],12.5 fold
same,RARγ densitometric analysis,"RARγ; 3pg/g diet as printed, 75 weeks",23.1 +/- 6.7 IDV
same,RARγ densitometric analysis,"RARγ; 30µg/g diet, 75 weeks",288 +/- 17.4 IDV
same,stimulated liver RAR (γ),RARγ; [4],2.1 fold
same,upregulated liver RAR (β),RARβ; [3],13.5 fold
same,RARβ densitometric analysis,"RARβ; 3µg/g diet, 75 weeks",18.9 +/- 7.4 IDV
same,RARβ densitometric analysis,"RARβ; 30µg/g diet, 75 weeks",254 +/- 31.9 IDV
same,stimulated liver RAR (β),RARβ; [4],4 fold
same,upregulated liver RAR (α),RARα; [3],21.8 fold
same,RARα densitometric analysis,"RARα; 3µg/g diet, 75 weeks",12.1 +/- 7.2 IDV
same,RARα densitometric analysis,"RARα; 30µg/g diet, 75 weeks",264 +/- 21.3 IDV
same,stimulated liver RAR (α),RARα; [4],2 fold
same,TGase II assay DPM/µg protein,TGase II [2]; pharmacological RA diet 30µg/g,"49,260 DPM/µg protein"
same,TGase II assay DPM/µg protein,TGase II [2]; physiological RA diet 3µg/g,"9,820 DPM/µg protein"
